SMILES strings stand for the structures.

For test [1], the target named is T1, human M2 muscarinic receptor (Homo sapiens, UniProt P08172).
T1 construct: expressed in transfected cells
T1 sequence (P08172 1-466): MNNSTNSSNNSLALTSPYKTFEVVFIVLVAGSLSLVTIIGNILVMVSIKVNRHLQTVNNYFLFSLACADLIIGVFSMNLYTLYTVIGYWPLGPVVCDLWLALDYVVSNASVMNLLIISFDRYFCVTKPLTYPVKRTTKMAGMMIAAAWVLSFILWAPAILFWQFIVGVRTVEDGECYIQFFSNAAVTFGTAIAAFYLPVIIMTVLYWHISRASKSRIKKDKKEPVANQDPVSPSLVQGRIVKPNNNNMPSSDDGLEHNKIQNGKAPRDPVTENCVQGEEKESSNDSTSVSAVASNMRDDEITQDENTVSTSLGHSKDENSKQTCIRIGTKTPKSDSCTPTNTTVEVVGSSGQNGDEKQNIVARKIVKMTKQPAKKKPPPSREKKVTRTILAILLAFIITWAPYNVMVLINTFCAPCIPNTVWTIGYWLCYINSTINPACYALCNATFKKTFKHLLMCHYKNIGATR
Description: Radioligand binding assay for muscarinic receptors (hM2). The following applies: [3H]-NMS displacement, CHO cell membranes. As to the method: The cells were grown in a 5% CO2, 37° C. incubator and lifted with 2 mM EDTA in dPBS. Cells were collected by 5 minute centrifugation at 650×g, and cell pellets were either stored frozen at −80° C. or membranes were prepared immediately for use. For membrane preparation, cell pellets were resuspended in lysis buffer and homogenized with a Polytron PT-2100 tissue disrupter (Kinematica AG; 20 seconds×2 bursts). Crude membranes were centrifuged at 40,000×g for 15 minutes at 4° C. The membrane pellet was then resuspended with re-suspension buffer and homogenized again with the Polytron tissue disrupter. […] All membranes were stored frozen in aliquots at −80° C. or used immediately.
The membranes were briefly homogenized using a Polytron tissue disruptor (10 seconds) prior to assay plate addition. […] Filter plates were rinsed three times with wash buffer (10 mM HEPES) to remove unbound radioactivity. […] Binding data were analyzed by nonlinear regression analysis with the GraphPad Prism Software package (GraphPad Software, Inc., San Diego, Calif.) using the one-site competition model.

The target of the next test is T2, hM1 receptor (Homo sapiens, UniProt P11229).
T2 construct: expressed in transfected cells
T2 sequence (P11229 1-460): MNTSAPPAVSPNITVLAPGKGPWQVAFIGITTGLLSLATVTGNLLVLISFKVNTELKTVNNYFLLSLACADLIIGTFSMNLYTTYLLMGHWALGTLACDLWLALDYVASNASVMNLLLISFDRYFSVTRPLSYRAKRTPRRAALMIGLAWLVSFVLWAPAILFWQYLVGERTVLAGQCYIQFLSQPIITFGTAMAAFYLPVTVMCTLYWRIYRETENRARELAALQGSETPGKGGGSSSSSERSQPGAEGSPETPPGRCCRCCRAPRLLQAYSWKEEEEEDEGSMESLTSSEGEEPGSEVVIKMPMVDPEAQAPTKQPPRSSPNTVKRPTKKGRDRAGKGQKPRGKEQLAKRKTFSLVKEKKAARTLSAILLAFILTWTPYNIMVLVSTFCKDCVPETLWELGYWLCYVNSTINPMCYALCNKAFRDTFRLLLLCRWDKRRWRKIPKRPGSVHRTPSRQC
Description: Blockade of agonist-mediated calcium release via FLIPR assay (hM1). As to conditions: CHO cells stably expressing hM1. It is filed as cell-based. An excerpt:
B. Blockade of Agonist-Mediated Calcium Release Via FLIPR Assays
Muscarinic receptor subtypes (M1, M3 and M5 receptors), which couple to Gq proteins, activate the phospholipase C (PLC) pathway upon agonist binding to the receptor. As a result, activated PLC hydrolyzes phosphatyl inositol diphosphate (PIP2) to diacylglycerol (DAG) and phosphatidyl-1,4,5-triphosphate (IP3), which in turn generates calcium release from intracellular stores, i.e., endoplasmic and sarcoplasmic reticulum. […] This fluorescence event is measured in real time by the FLIPR, which detects the change in fluorescence from a monolayer of cells cloned with human M1 and M3, and chimpanzee M5 receptors. Antagonist potency can be determined by the ability of antagonists to inhibit agonist-mediated increases in intracellular calcium. […]
To determine antagonist potency, the dose-dependent stimulation of intracellular Ca^2+ release for oxotremorine was first determined so that antagonist potency can later be measured against oxotremorine stimulation at an EC90 concentration. […]
The parameters used for the FLIPR were: exposure length of 0.4 seconds, laser strength of 0.5 watts, excitation wavelength of 488 nm, and emission wavelength of 550 nm. Baseline was determined by measuring the change in fluorescence for 10 seconds prior to addition of agonist. […]

In general, Ki refers to the equilibrium dissociation constant of an inhibitor or competing ligand from its target. As to `COc1cc(NC(=O)CCN2CCC(OC(=O)Nc3ccccc3-c3ccccc3)CC2)c(Cl)cc1CNC[C@H](O)c1ccc(O)c2[nH]c(=O)ccc12` [compound of formula I, biphenyl-2-ylcarbamic acid 1-[2-(2-chloro-4-{[(R)-2-hydroxy-2-(8-hydroxy-2-oxo-1,2-dihydroquinolin-5-yl)ethylamino]methyl}-5-methoxyphenylcarbamoyl)ethyl]piperidin-4-yl ester], the Ki (in test [1]; at hM1 receptor) was under 10 nM in each case.

Values taken from patent US8101766B2, “Crystalline form of a biphenyl compound” (Theravance, Inc., priority 2004, dated 2012).
